The structures appear in SMILES notation.

Common to all, as to assay: Determination of PI3K Activity
Settings in all cases: pH 7.4; 22 °C

For experiment [1], the target named is Phosphatidylinositol 3-kinase regulatory subunit alpha/4,5-bisphosphate 3-kinase catalytic subunit delta isoform (Homo sapiens, UniProt O00329).
Experiment [2] concerns the target Phosphatidylinositol 3-kinase regulatory subunit alpha/4,5-bisphosphate 3-kinase catalytic subunit alpha isoform (Homo sapiens, UniProt P42336).
Experiment [3] deals with Phosphatidylinositol 3-kinase regulatory subunit alpha/4,5-bisphosphate 3-kinase catalytic subunit beta isoform (Homo sapiens, UniProt P42338).
Sequence of Phosphatidylinositol 3-kinase regulatory subunit alpha/4,5-bisphosphate 3-kinase catalytic subunit beta isoform (P27986 whole entry, canonical isoform): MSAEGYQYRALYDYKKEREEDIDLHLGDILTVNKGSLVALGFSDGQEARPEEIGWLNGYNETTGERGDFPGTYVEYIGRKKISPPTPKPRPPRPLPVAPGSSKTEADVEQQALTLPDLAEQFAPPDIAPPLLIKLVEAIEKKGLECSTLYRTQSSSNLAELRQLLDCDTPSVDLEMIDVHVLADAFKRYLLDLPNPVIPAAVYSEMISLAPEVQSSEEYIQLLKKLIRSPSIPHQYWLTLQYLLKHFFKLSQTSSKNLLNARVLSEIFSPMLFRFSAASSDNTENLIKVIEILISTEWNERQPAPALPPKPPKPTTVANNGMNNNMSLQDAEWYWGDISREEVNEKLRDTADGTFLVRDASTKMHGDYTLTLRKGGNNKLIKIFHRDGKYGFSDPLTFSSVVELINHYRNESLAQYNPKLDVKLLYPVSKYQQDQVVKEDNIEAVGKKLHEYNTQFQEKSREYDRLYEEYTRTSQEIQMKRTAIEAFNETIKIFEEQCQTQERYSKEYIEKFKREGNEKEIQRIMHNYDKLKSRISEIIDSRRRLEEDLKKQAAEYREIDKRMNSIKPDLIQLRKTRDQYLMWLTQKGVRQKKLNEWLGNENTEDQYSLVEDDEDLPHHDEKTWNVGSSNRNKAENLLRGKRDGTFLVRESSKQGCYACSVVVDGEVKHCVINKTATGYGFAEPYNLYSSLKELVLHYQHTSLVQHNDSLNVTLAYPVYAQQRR
Sequence of Phosphatidylinositol 3-kinase regulatory subunit alpha/4,5-bisphosphate 3-kinase catalytic subunit beta isoform (P42338 whole entry, canonical isoform): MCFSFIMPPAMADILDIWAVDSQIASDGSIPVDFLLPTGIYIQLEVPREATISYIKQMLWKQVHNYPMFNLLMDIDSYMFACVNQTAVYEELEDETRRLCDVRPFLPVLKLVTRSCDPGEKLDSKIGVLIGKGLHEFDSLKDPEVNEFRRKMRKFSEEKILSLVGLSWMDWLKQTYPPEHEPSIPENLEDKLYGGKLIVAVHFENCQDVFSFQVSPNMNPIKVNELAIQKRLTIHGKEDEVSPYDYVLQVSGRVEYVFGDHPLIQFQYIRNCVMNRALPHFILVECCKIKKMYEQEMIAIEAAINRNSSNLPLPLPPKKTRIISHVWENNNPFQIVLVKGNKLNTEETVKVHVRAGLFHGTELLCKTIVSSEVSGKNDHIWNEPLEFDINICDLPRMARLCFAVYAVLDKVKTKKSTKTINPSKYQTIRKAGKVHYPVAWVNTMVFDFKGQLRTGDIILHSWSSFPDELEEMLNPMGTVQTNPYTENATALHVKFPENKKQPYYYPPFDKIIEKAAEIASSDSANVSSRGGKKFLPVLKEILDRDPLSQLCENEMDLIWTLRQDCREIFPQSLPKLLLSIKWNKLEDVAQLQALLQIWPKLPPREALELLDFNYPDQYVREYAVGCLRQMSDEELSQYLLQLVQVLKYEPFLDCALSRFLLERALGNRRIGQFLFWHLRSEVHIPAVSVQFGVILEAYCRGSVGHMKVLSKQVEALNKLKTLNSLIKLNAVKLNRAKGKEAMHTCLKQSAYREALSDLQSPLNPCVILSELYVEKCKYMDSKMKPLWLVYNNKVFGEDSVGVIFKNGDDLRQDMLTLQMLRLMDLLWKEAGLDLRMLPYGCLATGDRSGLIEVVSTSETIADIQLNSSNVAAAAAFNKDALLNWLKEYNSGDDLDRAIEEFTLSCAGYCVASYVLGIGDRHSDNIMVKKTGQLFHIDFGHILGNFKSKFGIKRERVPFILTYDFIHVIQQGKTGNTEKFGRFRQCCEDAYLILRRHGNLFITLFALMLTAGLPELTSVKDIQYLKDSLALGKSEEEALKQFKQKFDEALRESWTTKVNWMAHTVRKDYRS

Sequence of Phosphatidylinositol 3-kinase regulatory subunit alpha/4,5-bisphosphate 3-kinase catalytic subunit delta isoform (P27986 whole entry, canonical isoform): as the sequence (P27986 whole entry, canonical isoform) above
Sequence of Phosphatidylinositol 3-kinase regulatory subunit alpha/4,5-bisphosphate 3-kinase catalytic subunit delta isoform (O00329 whole entry, canonical isoform): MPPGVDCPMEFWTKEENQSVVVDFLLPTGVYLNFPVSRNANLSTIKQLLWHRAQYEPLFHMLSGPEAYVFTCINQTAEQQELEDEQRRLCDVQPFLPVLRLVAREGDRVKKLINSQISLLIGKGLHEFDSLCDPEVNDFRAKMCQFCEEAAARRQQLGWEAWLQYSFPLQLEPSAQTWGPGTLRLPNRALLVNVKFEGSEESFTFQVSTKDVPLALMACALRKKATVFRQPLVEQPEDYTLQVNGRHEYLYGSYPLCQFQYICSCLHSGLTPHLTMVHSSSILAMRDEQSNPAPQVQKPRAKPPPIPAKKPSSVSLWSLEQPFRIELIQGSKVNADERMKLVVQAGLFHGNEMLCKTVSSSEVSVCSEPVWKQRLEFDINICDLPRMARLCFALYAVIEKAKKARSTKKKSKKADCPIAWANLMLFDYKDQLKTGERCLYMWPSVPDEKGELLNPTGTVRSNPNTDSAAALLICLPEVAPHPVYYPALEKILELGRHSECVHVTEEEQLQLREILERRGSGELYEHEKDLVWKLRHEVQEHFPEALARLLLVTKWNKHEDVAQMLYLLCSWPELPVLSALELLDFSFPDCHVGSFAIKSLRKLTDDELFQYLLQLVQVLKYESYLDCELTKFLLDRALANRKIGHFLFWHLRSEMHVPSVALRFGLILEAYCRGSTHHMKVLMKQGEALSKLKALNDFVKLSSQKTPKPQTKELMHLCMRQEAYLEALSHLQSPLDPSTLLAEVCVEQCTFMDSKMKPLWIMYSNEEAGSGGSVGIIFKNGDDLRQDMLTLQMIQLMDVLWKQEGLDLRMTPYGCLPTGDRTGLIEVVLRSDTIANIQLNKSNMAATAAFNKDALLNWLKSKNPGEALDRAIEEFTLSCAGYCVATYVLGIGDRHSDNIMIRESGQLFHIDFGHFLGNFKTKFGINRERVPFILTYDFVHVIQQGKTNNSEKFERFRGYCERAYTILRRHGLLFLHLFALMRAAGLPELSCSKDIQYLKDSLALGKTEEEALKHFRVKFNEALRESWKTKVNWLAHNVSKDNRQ
Sequence of Phosphatidylinositol 3-kinase regulatory subunit alpha/4,5-bisphosphate 3-kinase catalytic subunit alpha isoform (P27986 whole entry, canonical isoform): as the sequence (P27986 whole entry, canonical isoform) above
Sequence of Phosphatidylinositol 3-kinase regulatory subunit alpha/4,5-bisphosphate 3-kinase catalytic subunit alpha isoform (P42336 whole entry, canonical isoform): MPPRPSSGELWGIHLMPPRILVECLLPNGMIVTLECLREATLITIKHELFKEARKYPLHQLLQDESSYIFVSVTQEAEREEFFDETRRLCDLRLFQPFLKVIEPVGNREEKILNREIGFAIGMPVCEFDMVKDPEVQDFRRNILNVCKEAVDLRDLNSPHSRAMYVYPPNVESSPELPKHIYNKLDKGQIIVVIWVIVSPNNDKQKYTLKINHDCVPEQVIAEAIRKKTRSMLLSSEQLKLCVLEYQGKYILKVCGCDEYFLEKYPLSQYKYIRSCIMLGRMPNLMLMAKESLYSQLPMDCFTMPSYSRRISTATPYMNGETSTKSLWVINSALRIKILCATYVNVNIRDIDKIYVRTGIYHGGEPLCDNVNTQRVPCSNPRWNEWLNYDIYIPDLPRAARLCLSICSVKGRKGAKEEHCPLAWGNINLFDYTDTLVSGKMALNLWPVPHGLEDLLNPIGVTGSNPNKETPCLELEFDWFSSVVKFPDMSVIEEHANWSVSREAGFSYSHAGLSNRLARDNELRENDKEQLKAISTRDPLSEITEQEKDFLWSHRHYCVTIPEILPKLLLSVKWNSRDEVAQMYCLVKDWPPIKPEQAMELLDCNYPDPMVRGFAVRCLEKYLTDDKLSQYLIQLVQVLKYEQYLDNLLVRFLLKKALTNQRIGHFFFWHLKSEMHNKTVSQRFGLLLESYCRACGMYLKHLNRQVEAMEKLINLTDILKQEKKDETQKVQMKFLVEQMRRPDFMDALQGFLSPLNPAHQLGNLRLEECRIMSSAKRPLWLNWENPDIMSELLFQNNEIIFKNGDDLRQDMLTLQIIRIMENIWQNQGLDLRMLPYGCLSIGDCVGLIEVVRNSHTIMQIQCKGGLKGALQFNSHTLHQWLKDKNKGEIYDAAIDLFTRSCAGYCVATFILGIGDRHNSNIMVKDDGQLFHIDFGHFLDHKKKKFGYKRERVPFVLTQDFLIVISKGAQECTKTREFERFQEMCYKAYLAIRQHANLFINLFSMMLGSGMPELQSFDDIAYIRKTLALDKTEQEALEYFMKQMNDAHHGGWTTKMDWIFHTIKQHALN

For `O=c1cc(N2CCOCC2)oc2c(-c3ccccc3)cccc12`, it took 561 nM to reach half-maximal inhibition in experiment [1] (IC50).
`Nc1nc(N)c2nc(-c3cccc4[nH]ccc34)cnc2n1` [6-(1H-indol-4-yl)pteridine-2,4-diamine]: the IC50 (as a rule, the point on the concentration scale where inhibition reaches its midpoint) in experiment [2] was found to be 1200 nM; in experiment [3], 107 nM; in experiment [1], 64 nM.

These data come from BindingDB's records for doi:10.1073/pnas.0606956103 (Targegen, 2006).
